Laboratory results published in patent publication US20250074895A1, “CDK2 INHIBITORS AND METHODS OF MAKING AND USING SAME” (BLUEPRINT MEDICINES CORPORATION, priority 2021, published 2025).

What was measured:
CDK1/Cyclin B1, GST-tag = CDK1/Cyclin B1, GST-tag (Homo sapiens (Human), UniProt P06493); assay: Biochemical CDK inhibition assay (Caliper mobility shift), CDK1/Cyclin B1; details: 1.0 mM ATP or ATP Km, 1.5 nM enzyme, apparent IC50
Method: (§1) Inhibitory effects of the compounds of the disclosure were measured in biochemical assays that measure the enzymatic phosphorylation activity of CDK enzyme in complex of Cyclin proteins phosphorylates 7.5 micromolar fluorescently labelled peptide substrate, 5-FAM-QSPKKG-CONH2, (FL-Peptide 18, Perkin Elmer, 760362) in the presence of adenosine-5′-triphosphate (ATP) and varying concentrations of the test compound in 100 mM 2-[4-(2-hydroxyethyl)piperazin-1-yl]ethanesulfonic acid (HEPES), pH 7.5, 10 mM MgCl2, 0.015% Brij-35, 1 mM dithiothreitol (DTT), 1.0% dimethylsulfoxide (DMSO). Assays were performed at 1.0 mM ATP or at ATP Km of the CDK enzymes in complex with Cyclin proteins. Reactions proceeded until between 10% to 20% total peptides were phosphorylated at room temperature (25° C.) and were terminated with 35 mM 2,2′,2″,2′″-(ethane-1,2-diyldinitrilo)tetraacetic acid (EDTA). Product was detected using the Caliper mobility shift detection method where the phosphorylated peptide (product) and substrate were electrophoretically separated and measured. Percent activity was plotted against log concentration of compound and points to generate an apparent IC50. The following CDK enzymes in complex with different cyclin proteins were used in these assays: • CDK1/Cyclin B1, GST-tag (BPS, 40454), 1.5 nM used in the assay • CDK2/Cyclin E (Eurofins, 14-475), 1.25 nM used in the assays
(§2) For inhibitory activity against CDK2/Cyclin […], the following designations are used: ≤10 nM=A; >10-20 nM=B; >20-30 nM=C; >30-100 nM=D and >100=E. For inhibition CDK1/Cyclin B1, GST-tag: ≥500 nM=A; 100-<500 nM=B; <100 nM=C.

CDK2/Cyclin E = CDK2/Cyclin E (Homo sapiens (Human), UniProt P24941); assay: Biochemical CDK inhibition assay (Caliper mobility shift), CDK2/Cyclin E; details: 1.0 mM ATP or ATP Km, 1.25 nM enzyme, apparent IC50, read-out: CDK2/cyclin E1 IC50
Method: as §1, §2

Sequence of CDK1/Cyclin B1, GST-tag (P06493 whole entry): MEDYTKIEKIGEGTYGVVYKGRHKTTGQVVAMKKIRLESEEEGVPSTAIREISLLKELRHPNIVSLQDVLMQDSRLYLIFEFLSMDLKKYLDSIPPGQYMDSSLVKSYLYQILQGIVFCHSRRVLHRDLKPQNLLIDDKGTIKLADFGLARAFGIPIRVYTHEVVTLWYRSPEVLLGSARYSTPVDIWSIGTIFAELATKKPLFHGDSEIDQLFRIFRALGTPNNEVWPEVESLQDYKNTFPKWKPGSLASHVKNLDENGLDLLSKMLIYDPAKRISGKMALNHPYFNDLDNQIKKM
Sequence of CDK1/Cyclin B1, GST-tag (P14635 whole entry partner): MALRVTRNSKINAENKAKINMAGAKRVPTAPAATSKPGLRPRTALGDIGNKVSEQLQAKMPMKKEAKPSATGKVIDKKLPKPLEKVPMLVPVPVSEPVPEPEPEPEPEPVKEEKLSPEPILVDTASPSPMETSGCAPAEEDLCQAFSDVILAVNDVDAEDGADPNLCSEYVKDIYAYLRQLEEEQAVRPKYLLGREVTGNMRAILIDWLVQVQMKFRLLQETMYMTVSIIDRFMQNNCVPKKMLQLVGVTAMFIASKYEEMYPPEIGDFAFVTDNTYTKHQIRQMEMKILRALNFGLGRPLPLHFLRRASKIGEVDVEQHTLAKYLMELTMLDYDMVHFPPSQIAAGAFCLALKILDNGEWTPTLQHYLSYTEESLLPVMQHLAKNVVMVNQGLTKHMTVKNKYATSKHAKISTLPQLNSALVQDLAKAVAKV

| IC50 (CDK1/Cyclin B1, GST-tag) [nM] | IC50 (CDK2/Cyclin E) [nM] | SMILES |
| --- | --- | --- |
| < 100 | ≤ 10 | CC(C)(O)c1cnc(Nc2cc([C@H]3CC[C@@H](OC(=O)N4CCC4(C)C)C3)[nH]n2)cn1 [Example 50, (1R,3S)-3-(3-((5-(2-hydroxypropan-2-yl)pyrazin-2-yl)amino)-1H-pyrazol-5-yl)cyclopentyl 2,2-dimethylazetidine-1-carboxylate] |
| 100 to 500 | ≤ 10 | CC(C)NC(=O)O[C@@H]1CC[C@H](c2cc(Nc3cnc(C#N)cn3)n[nH]2)C1 [Example 53, (1R,3S)-3-(3-((5-cyanopyrazin-2-yl)amino)-1H-pyrazol-5-yl)cyclopentyl isopropylcarbamate] |
| < 100 | ≤ 10 | CNC(=O)O[C@@H]1CC[C@H](c2cc(Nc3cncc(OCC4CC4)n3)n[nH]2)C1 [Example 56, (1R,3S)-3-(3-((6-(cyclopropylmethoxy)pyrazin-2-yl)amino)-1H-pyrazol-5-yl)cyclopentyl methylcarbamate] |
